Values of other authors, collected in patent publication US20020141964A1, “Composition for arresting the flow of blood and method” (priority 2001, published 2002).

Test system: blood flowing from an open wound
Conditions: shown in the earlier U.S. patent of the co-inventors

potassium ferrate
accelerated clotting of blood flowing from an open wound: effectively accomplishes the accelerated clotting of blood
